# Measured values taken from patent US7199286B2, “Plant-derived novel pathogen and SAR-induction chemical induced promoters, and fragments thereof” (Syngenta Participations AG, priority 1999, dated 2007).
# Tested on: NI16 promoter fragment 962 bp
# Assay: GUS florescence assay of promoter::GUS plants after SA application, NI16 962 bp fragment
# Format: in vivo, Arabidopsis
# Conditions: 5 mM SA spray
# From the text: A binary promoter::reporter plasmid (pNOV2374) for Arabidopsis transformation was constructed. The regulatory/promoter sequence was fused to the GUS reporter gene (Jefferson et al. (1987) EMBO J 6: 3901-3907) by recombination using […] Technology according to the manufacturer's protocol as described in the Instruction Manual (LifeTechnologies, Rockville, Md.). The construct was then transformed into Agrobacterium tumefaciens strains by electroporation. pNOV2374 is a binary vector with a VS1 origin of replication, a copy of the Agrobacterium virg gene in the backbone, and a Basta® resistance selectable marker cassette between the left and right border sequences of the T-DNA. The Basta® selectable marker cassette comprises the Agrobacterium tumefaciens manopine synthase promoter (AtMas) (Barker et al., Plant Mol. Biol. 2, 335-350 (1983)) operably linked to the gene encoding Basta® resistance (i.e., the “BAR” gene, phosphinothricin acetyl transferase) (White et al., Nucl Acids Res 18: 1062 (1990)) and the 35S terminator. The AtMas promoter, the BAR coding sequence, and the 35S terminator are located at nt 4211 to nt 4679, nt 4680 to nt 5228, and nt 5263 to nt 5488, respectively, of pNOV2374. The vector contains […] recombination components, which were introduced into the binary vector backbone by ligating a blunt-ended cassette containing attR sites, ccdB, and a cholramphenicol resistance marker using the […] Vector Conversion System (LifeTechnologies, Rockville, Md.). The […] cassette was located between nt 126 and 1818 of pNOV2374. The promoter cassettes were inserted through an LR recombination reaction whereby the DNA sequence of pNOV2374 between nt 126 and nt 1818 were removed and replaced with the promoter of interest flanked by att sequences. […] The GIG gene (SEQ ID NO:29) contains the ST-LS1 intron from Solanum tuberosum at nt 385 to nt 576 of GUS (obtained from Dr. Stanton […], Purdue University, and described in Narasimhulu, et al. (1996) Plant Cell 8: 873-886.). […] The treatment was applied as a fine mist to the leaves. […] For quantitative analysis of promoter activity following induction treatments or in various Arabidopsis tissues and organs, GUS expression is measured florometrically. Tissue samples were harvested and ground in ice cold GUS extraction buffer (50 mM Na2HPO4 pH 7.0, 5 mM DTT, 1 mM Na2EDTA, 0.1% TritonX100, 0.1% sarcosyl). Ground samples were spun in a microfuge at 10,000 rpm for 15 minutes at 4° C. Following centrifugation, the supernatant was removed for the GUS assay and for a protein concentration determination. To measure GUS activity, the plant extract was assayed in GUS assay buffer (50 mM Na2HPO4 pH 7.0, 5 mM DTT, 1 mM Na2EDTA, 0.1% TritonX100, 0.1% sarcosyl, 1 mM 4-Methylumbelliferyl-beta-D-glucuronic acid dihydrate (MUG)), pre-warmed to 37° C. Reactions were incubated, and 100 uL aliquots were removed at 10 minute intervals over 30 minutes to stop the reaction by adding the 100 uL aliquots to tubes containing 900 uL of 2% Na2CO3. The stopped reactions were then read on a Tecan Spectroflourometer at 365 nm excitation and 455 emission wavelengths. Protein concentrations were determined using the BCA assay following the manufacturer's protocol. GUS activity is expressed as pmol MU/mg protein/min.
structure (smiles),measurement,setting,value
"O=C(O)c1ccccc1O [SA, salicylic acid]",GUS Activity Induced by SA,2 h,86.8 pmol/mg protein/min
same,GUS activity Fold-change relative to T0 (uninduced),2 h,2.2 fold
same,GUS Activity Induced by SA,4 h,260.8 pmol/mg protein/min
same,GUS activity Fold-change relative to T0 (uninduced),4 h,6.6 fold
same,GUS Activity Induced by SA,8 h,467.7 pmol/mg protein/min
same,GUS Activity Induced by SA,24 h,1457.5 pmol/mg protein/min
same,GUS activity Fold-change relative to T0 (uninduced),24 h,36.7 fold
